# According to patent US7456154B2 (priority 2001, dated 2008):
# How the values were obtained:
# [1] = Stability of hEN101 in human plasma and blood; format: in vitro ADME
# Description: Exposure at room temperature to Li-heparin-treated blood caused a decay of hEN101 with a half-life in the order of 30 min.
# healthy rats = assay: Electromyography: CMAP ratio in naive (healthy) rats; format: in vivo, rat; details: for CMAP ratio (5th vs. 1st amplitude): naive rats, 50 μg/Kg, average ± SEM
# Description: Electromyography: Rats were anesthetized by i.p. injection of […] pentobarbital, immobilized, and subjected to repetitive sciatic nerve stimulation, using a pair of concentric needle electrodes at 3 Hz. Baseline compound muscle action potential (CMAP) was recorded by a concentric needle electrode placed in the gastrocnemius muscle, following a train of repetitive nerve stimulations at supramaximal intensity. Decrease (percent) in the amplitude of the fifth vs. the first muscle action potential was determined in two sets of repetitive stimulations for each animal. A reduction of 10% or more was considered indicative of neuromuscular transmission dysfunction.
# Drug administration: Intravenous injections and blood sampling for anti-AChR antibodies testing were via the right jugular vein under anesthesia. For oral administration, a special needle for oral gavage feeding was used, which is curved with a ball end (Stoelting, Wood Dale Ill.). Mestinon® was administered in a dose of 1 mg/kg/day, and purchased from Hoffmann La-Roche. Basel, Switzerland.
# AChE-S mRNA = assay: In situ hybridization of AChE-S mRNA in rat muscle; format: in vivo; details: 24 h after single i.v. injection
# Description: In situ hybridization: Tissues were fixed in 4% paraformaldehyde and cut into 7 μm paraffin embedded sections. Spinal cord sections were deparaffinized, rehydrated using serial ethanol dilutions and permeabilized with proteinase K (10 μg/ml at room temp.). Slides were exposed to 5′ biotinylated, fully 2′-oxymethylated AChE-R or AChE-S-specific 50-mer cRNA probes complementary to human ACHE pseudo-intron 4 or exon 6, respectively [Grisaru et al. (2001) id ibid.]. Hybridization was performed overnight at 52° C. in hybridization mixture containing 10 μg/ml probe, 50 μg/ml yeast tRNA, 50 μg/ml heparin and 50% formamide in 375 mM Na chloride, 37.5 mM Na citrate, pH 4.5. For monkey sections, the probe was constructed according to the human AChE-R sequence; for rat sections, according to the mouse sequence. Slides were washed to remove non-hybridized probe, blocked with 1% skim milk containing 0.01% Tween-20 and 2 mM levamisole, an alkaline phosphatase inhibitor used to suppress non-specific staining and incubate with streptavidin-alkaline phosphatase (Amersham Pharmacia). Fast Red™ substrate (Roche Diagnostics) was used for detection. DAPI staining (Sigma Chemical Co., St. Louis, Mo., USA) served to visualize nuclei. Microscope images were analyzed with Image Pro Plus 4.0 (Media Cybernetics) software. […]
# EAMG rats = assay: Repeated daily treatment of EAMG rats (5 days and 1 month): survival, body weight, status; format: in vivo, rat
# Source text: As shown in Example 5, unlike anti-cholinesterases, rEN101 afforded long-term maintenance of stable CMAP. This further enabled the inventors to test whether the cholinergic imbalance contributes to the physiological deterioration that is characteristic of EAMG. Rats were first treated with rEN101 once a day for 5 days, CMAPs being determined prior to each treatment. Both the efficacy of rEN101 in retrieving normal CMAP and its capacity to reduce the inter-animal variability in CMAP values reached similar levels to those of pyridostigmine (FIGS. 11A and 11B). However, the onset of response to pyridostigmine was more rapid (Table 1), while that observed with rEN101 was longer-lasting. Daily oral or i.v administration of rEN101 stabilized CMAPs over the entire course of treatment (FIG. 11B). In contrast, the effect of pyridostigmine wore off within several hours, causing pronounced fluctuations in muscle status (Table 1 and FIG. 11). Among the animals treated daily with pyridostigmine, 5 out of 6 died within the 5 day experimental course. In contrast, 6 out of 8 animals treated once-a-day with rEN101 via o.g. survived the full 5 day period. This conspicuous difference might reflect the susceptibility of EAMG rats to repeated anesthesia and CMAP measurements. In order to avoid these additional stresses and evaluate the effect of the antisense treatment on EAMG pathophysiology, the inventors subjected groups of moderately sick animals to 1 month of daily oral treatment with minimal interference. […] One way repeated measures ANOVA yielded P<0.05 for all other measures (AS vs. other treatments at 4 weeks). The effect of rEN101 on clinical symptoms was also corroborated by body weight changes. Rats treated with saline and Mestinon treated groups lost 13.5 and 11 g/animal, respectively, whereas animals treated with rEN101 gained, on average, 13 g during the treatment period. Thus, daily rEN101 administration promoted long-term change in the course of EAMG in rats with moderate to severe symptoms, under the same conditions in which untreated or pyridostigmine-treated animals deteriorated.
Substance,"Stability, remaining concentration ([1]; 2 h in human plasma with EDTA at room temperature)",Half-life of decay ([1]; Li-heparin-treated blood at room temperature),"Stability, remaining concentration ([1]; after 1 month at −20° C.)","Stability, remaining concentration ([1]; following three freeze/thawing cycles)","Effect on CMAP in healthy animals (healthy rats; i.v., doses 10-500 μg/Kg)","CMAP ratio (5th vs. 1st amplitude) (healthy rats; intravenous, 0 h)","CMAP ratio (5th vs. 1st amplitude) (healthy rats; intravenous, 5 h)","CMAP ratio (5th vs. 1st amplitude) (healthy rats; intravenous, 24 h)","CMAP ratio (5th vs. 1st amplitude) (healthy rats; oral, 0 h)","CMAP ratio (5th vs. 1st amplitude) (healthy rats; oral, 1 h)","CMAP ratio (5th vs. 1st amplitude) (healthy rats; oral, 5 h)","CMAP ratio (5th vs. 1st amplitude) (healthy rats; oral, 24 h)",AChE-S mRNA labeling in muscle (AChE-S mRNA),Animals that survived the full 5 day period (EAMG rats; EAMG rats treated once-a-day via o.g.),"Survival, clinical status and treadmill performance vs pyridostigmine- and saline-treated animals (EAMG rats; EAMG rats, 1 month daily oral doses (50 μg/Kg))","Body weight gained during the treatment period, average (EAMG rats; EAMG rats, 1 month daily oral treatment)"
5′-CTGCCACGTTCTCCTGCACC-3′ [hEN101],> 90 % of original concentration,~30 min,> 90 % of original concentration,> 90 % of original concentration,–,–,–,–,–,–,–,–,–,–,–,–
5′-CTGCGATATTTTCTTGTACC-3′ (chemistry not given here) [rEN101],–,–,–,–,did not affect CMAP,1.00 ± 0.0,1.00 ± 0.01,1.02 ± 0.01,1.01 ± 0.01,1.0 ± 0.02,1.03 ± 0.02,1.01 ± 0.00,only nominally affected,6 out of 8,"significant improvement in survival, clinical status and treadmill performance",13 g
